Numbers after ± are expanded uncertainties.
Key:
[1] = 298.15 K; 101.33 kPa; Liquid
[2] = refractive index (Na D-line) (dimensionless); conditions: 298.15 K; 101.33 kPa; Liquid; Standard Abbe refractometry

SMILES	mass density [1] [kg/m3]	refractive index [2]
CCOS(=O)(=O)[O-].CCn1cc[n+](C)c1 [1-ethyl-3-methylimidazolium ethyl sulfate]	1237.23 ± 1.8	1.4791 ± 0.0007
c1ccccc1 [benzene]	873.57 ± 0.17	1.49774 ± 0.00068
C1CCCCC1 [cyclohexane]	773.8 ± 0.25	1.4236 ± 0.00068
C1CCCCCCC1 [cyclooctane]	831.47 ± 0.73	1.45598 ± 0.0007
CC1CCCCC1 [methylcyclohexane]	765.02 ± 0.25	1.42062 ± 0.00068

From the NIST ThermoML archive (doi:10.1021/je100508y)
